The results in this text go back to US11541098B2, “Peptide composition for treating excitatory neurotoxicity related injuries” (Biocells (Beijing) Biotech Co., Ltd., priority 2017, dated 2023).

Several values for one entry are separate records, joined by “and”; a condition that tells them apart may be missing. Identical values can stand only once. Peptide text beside a SMILES is read from it.

The test system of data set [1] is MCAO model rats. In words: Therapeutic effect on MCAO model rats (cerebral infarction volume, TTC staining). The conditions noted are these: rat, in vivo. On the procedure:
The focal cerebral ischemia-reperfusion model was prepared according to the reversible middle cerebral artery occlusion (MCAO) suture method proposed by Longa with modifications in view of the anatomical structure of the rat brain. The rats were anesthetized by intraperitoneal administration of 10% chloral hydrate at a dose of […]. After anesthetization, a cut was created at the cervical midline, and the common carotid artery (CCA), external carotid artery (ECA) and pterygopalatine artery were exposed. The head portion (0.5 cm) of a monofilament nylon fishing line (0.26 mm) was coated with paraffin and a mark was made at 20 mm. All rats were inserted through the right CCA incision, and the pterygopalatine artery was temporarily clamped to prevent mis-insertion. The length of the occlusion line was about 18-20 mm from the bifurcation of CCA depending on the animal's weight, thereby occluding middle cerebral artery on the right side. The skin was then sewed, and the tail end of the occlusion line was partially fixed to the skin. After a period of ischemia for 2 hours, the occlusion line was carefully pulled out to form a reperfusion. The procedure steps for the sham control were the same as the surgery group, except for insertion of a nylon fishing line. The body temperature was maintained at 37±0.5° C. during the ischemia period and 2 h after reperfusion.
The used animals were male adult SD rats (Vittalia) of SPF grade with body weight of 220-250 g.
No drug was administered to the normal group and the sham group.
The rats were sacrificed by decapitation after scoring. The brain tissues were quickly removed and placed in a refrigerator at −20° C. After 10 minutes, the tissues were placed in a room temperature environment. The brains were placed in a rat brain section mold. After the olfactory bulb, cerebellum and low brain stem were removed, the brains were coronally cut five times at 2 mm thickness as shown in the profile to obtain six continuous raw coronal slices. Then, the brain sections were quickly placed in a 5 ml solution containing 2% TTC, and incubated at 37° C. for 30 minutes in the dark, during which the brain sections were flipped once every 5 minutes. With the TTC staining, the normal tissue would be rose red, and the infarcted tissue would be unstained and retained white. Each group of brain sections was arranged neatly, and photographed. The photos were processed by an image analysis system software and statistically analyzed. The infarction area of each brain section was calculated, and multiplied by the thickness of each brain section (2 mm). The products of the infarction area of individual brain section multiplied by the thickness were summed to obtain the cerebral infarction volume for each animal. The volumes were expressed as percentages accounting for the cerebral hemisphere to eliminate the effects of cerebral edema.

Data set [2] has as its system MCAO model rats. As to the kind of experiment: HE staining for histological changes of rat brain after ischemia. Type of data set: in vivo. The conditions noted are these: 10 mg/kg, 24 h after ischemia. On the procedure: The rats in each group were decapitated at 24 h after ischemia, and the resultant brain was coronally sectioned near the optic chiasm with a thickness of about 4 mm. The sections were fixed with 10% formalin solution and dehydrated with alcohol with a concentration gradient from 70% to 100%. The sections were permeabilized twice in xylene, and embedded in paraffin. The paraffin block was carefully trimmed, and immobilized on a paraffin slicing machine, and sliced to sections with a thickness of 4 μm. The paraffin sections were completely unfolded, attached to a clean and dry glass slide, and stored in a refrigerator at 4° C. Conventional HE staining was performed, and the staining results were observed by light microscopy.

Another data set has as its system rats. In words: Acute toxicity test on rats. The conditions noted are these: dose of 200 mg/kg body weight. Type of data set: in vivo, rat. How it is done: Acute toxicity tests were performed on rats.

For `CC[C@H](C)[C@H](NC(=O)[C@H](CO)NC(=O)[C@H](CO)NC(=O)[C@H](CC(C)C)NC(=O)[C@H](CCCCN)NC(=O)[C@H](CCC(=O)O)NC(=O)[C@H](Cc1ccc(O)cc1)NC(=O)[C@H](CCCNC(=N)N)NC(=O)[C@H](CCCNC(=N)N)NC(=O)[C@H](CCCNC(=N)N)NC(=O)[C@H](CCC(N)=O)NC(=O)[C@H](CCCNC(=N)N)NC(=O)[C@H](CCCNC(=N)N)NC(=O)[C@H](CCCCN)NC(=O)[C@H](CCCCN)NC(=O)[C@H](CCCNC(=N)N)NC(=O)CNC(=O)[C@@H](N)Cc1ccc(O)cc1)C(=O)N[C@@H](CCC(=O)O)C(=O)N[C@@H](CO)C(=O)N[C@@H](CC(=O)O)C(=O)N[C@H](C(=O)O)C(C)C` [YE-NA-1] (H-YGRKKRRQRRRYEKLSSIESDV-OH), the “Mean of infarction volume percentage (%)” value with MCAO model rats [1] is recorded as 33.96%.
For the compound `CC[C@H](C)[C@H](NC(=O)[C@H](CO)NC(=O)[C@H](CO)NC(=O)[C@H](CC(C)C)NC(=O)[C@H](CCCCN)NC(=O)[C@H](CCCNC(=N)N)NC(=O)[C@H](CCCNC(=N)N)NC(=O)[C@H](CCCNC(=N)N)NC(=O)[C@H](CCC(N)=O)NC(=O)[C@H](CCCNC(=N)N)NC(=O)[C@H](CCCNC(=N)N)NC(=O)[C@H](CCCCN)NC(=O)[C@H](CCCCN)NC(=O)[C@H](CCCNC(=N)N)NC(=O)CNC(=O)[C@@H](N)Cc1ccc(O)cc1)C(=O)N[C@@H](CCC(=O)O)C(=O)N[C@@H](CO)C(=O)N[C@@H](CC(=O)O)C(=O)N[C@H](C(=O)O)C(C)C` [NA-1, reference compound] (H-YGRKKRRQRRRKLSSIESDV-OH), the “Mean of infarction volume percentage (%)” value in the data set on MCAO model rats [1] turned out to be 38.56%.
For `CC[C@H](C)[C@H](NC(=O)[C@H](CCC(=O)O)NC(=O)[C@@H](NC(=O)[C@H](CC(=O)O)NC(=O)[C@H](CC(C)C)NC(=O)[C@H](CC(C)C)NC(=O)[C@H](CCCCN)NC(=O)[C@H](CCC(=O)O)NC(=O)[C@H](Cc1ccc(O)cc1)NC(=O)[C@H](CCCNC(=N)N)NC(=O)[C@H](CCCNC(=N)N)NC(=O)[C@H](CCCNC(=N)N)NC(=O)[C@H](CCC(N)=O)NC(=O)[C@H](CCCNC(=N)N)NC(=O)[C@H](CCCNC(=N)N)NC(=O)[C@H](CCCCN)NC(=O)[C@H](CCCCN)NC(=O)[C@H](CCCNC(=N)N)NC(=O)CNC(=O)[C@@H](N)Cc1ccc(O)cc1)[C@@H](C)O)C(=O)O` [P5], the “Mean of infarction volume percentage (%)” value in the data set with MCAO model rats [1] was 24.84% and 36.54% and 43.22%; in the data set with MCAO model rats [1] (1 mg/kg), 44.23%; in the data set on MCAO model rats [1] (3 mg/kg) it was 35.66%; in the data set with MCAO model rats [1] (10 mg/kg), 19.54%. The results for the “Reduction of infarction volume percentage vs model group” value in the data set with MCAO model rats [1] (1 mg/kg) and with MCAO model rats [1] (3 mg/kg) were 3.76% and 22.41%, respectively. The “pathological changes of brain tissue (HE staining)” value in the data set on MCAO model rats [2] (prophylactic administration) and in the data set on MCAO model rats [2] (therapeutic administration) was “significantly improved” throughout. In addition, the acute toxicity entry in the data set on rats was “no lethal effect and other obvious toxic side effects”.
